The assay has as its system female F344 rats. Nature of the assay: Effect on bone density (oophorectomized rats, femur, DXA). As to conditions: 25 mg/kg orally once a day, six days a week, six weeks, Dunnett's test. It counts as in vivo, rat. Here is the method: Eight to 12 week old female F344 rats were purchased from Charles River Laboratories Japan, Inc. and used in the following experiment.
This test was conducted at N=8. Rats were anesthetized by the intraperitoneal administration of 40 mg/kg of Somnopentyl (purchased from Kyoritsu Seiyaku Corporation), followed by oophorectomy.
From the day after surgery, a control group received a 0.5% methyl cellulose solution (purchased from Wako Pure Chemical Industries, Ltd., Cat. No. 133-14255) alone, whereas another group received a suspension of the test compound in this solution (0.5% methyl cellulose solution), for the test.
The administration was performed orally once a day, six days a week. Six weeks after administration, the rats were euthanized by removal of whole blood from the lower abdominal aorta under Somnopentyl anesthesia, and the left and right femur was excised.
After removal of soft tissues, the bone density of the femur thus excised was measured (apparatus: DXA apparatus DCS-600R manufactured by Aloka Co., Ltd.). The bone density was assessed in the whole femur as well as in three equal sections of the whole femur, namely the proximal end, the shaft, and the distal end.
The Dunnett's test was used in certification.

Structures are written as SMILES.

Consider `COCC(=O)N1CCC(c2oc3c(C)c(O)ccc3c(=O)c2C)CC1` [Example 11, 7-Hydroxy-2-[1-(methoxyacetyl)piperidin-4-yl]-3,8-dimethyl-4H-chromen-4-one], for which the “bone density of the femur compared with the control group” value is listed as “significantly increased the bone density”.

These data come from US9221811B2, “Chromone derivative having osteogenesis promoting effect” (Daiichi Sankyo Company, Limited, priority 2012, dated 2015).
